Experimental data taken from article PMC12592502, “Unraveling the mechanisms behind the enhanced efficacy of β-lactam-based sideromycins” (Communications Biology, 2025).
“And” between values parts separate entries of the source, which are not always exact repeats. Identical values can stand only once. Like-named read-outs stand apart in the source and are kept apart here.

How the values were obtained:
[1] = biological target: T1, purified PBP3 of P. aeruginosa (PaPBP3) (Pseudomonas aeruginosa, UniProt G3XD46); assay: biochemical; assay type: binding
T1 construct: (residues 53 to 579) from P. aeruginosa ATCC 27853 (PaPBP3); His6 (C); made in house; host or cells: E. coli BL21 DE3
Description: The PBP binding assay was done as described previously[36],[56],[57]. For each antibiotic concentration tested, a quantity of 25 to 40 μg of membrane preparation was used as the source of PBPs, depending on the species. For the purified PaPBP3, 150 ng was used in the assay. First, increasing concentrations of the test antibiotic was added to the membrane or purified PaPBP3 preparations and incubated for 10 min at 30 °C. The reporter molecule Bocillin FL was then added at 12.5 μM for the membrane PBPs preparations and at 500 nM for the pure PaPBP3 samples for an additional 20 min at 30 °C. All reactions were stopped with the addition of the Laemmli-loading buffer (Bio-Rad) containing fresh β-mercaptoethanol (Sigma). All reactions were then heated at 100°C for 3 min before migration on SDS-polyacrylamide discontinuous gel system (7.5% stacking and 10% separating). Control samples without Bocillin FL were also included to highlight autofluorescent proteins that are not PBPs.
To be able to visualize labeled PBPs after electrophoresis, gels were rinsed in water and fixed in a solution of 50% methanol and 7% acetic acid for 30 min. The fluorescent images of gels were obtained with the Typhoon FLA 9500 instrument (GE-Healthcare Bio-Sciences Inc., Baie-d’Urfé, QC, CA) using a 473 nm excitation wavelength. To obtain quantifiable data, the software Quantity One 1D analysis was used (version 4.6.6; Bio-Rad Laboratories, Richmond, CA). The volume (intensity × constant area) of each PBP was measured. […] All IC50 data were obtained from at least two independent PBP binding assays using two different sets of compound concentrations using a linear regression.

SHV-1 = SHV-1 (Klebsiella pneumoniae, UniProt P0AD64); assay: biochemical
Description: Enzyme concentrations were 20 nM for AmpC and SHV-1, and 50 nM for OXA-98. Quartz cuvette (FireflySci Inc., Northport, NY) with 1 cm length path and 2 mm inside width was used with an Ultrospec 2100 Pro (Biochrom, Harvard Bioscience Inc., USA) to acquire the kinetic measures. […] The following extinction coefficients (Δε) and wavelengths (λ) were used:
The steady-state parameters (Km and Kcat) were determined by plotting the initial velocity against substrate concentrations (Michaelis–Menten curve). The Kcat was measured using the Vmax (μM/sec) divided by the total enzyme concentration and the catalytic efficiency was further calculated (Kcat/Km). SHV-1 parameters were determined with three Michaelis–Menten curves of at least seven substrate concentrations, while OXA-98 and AmpC were duplicates of curves of at least seven substrate concentrations. […] Initial velocities were measured at room temperature (25 °C). The Vmax and Km were calculated using least squares fit regression in GraphPad version 10.2.2. Ki was measured using a derivative of IC50 with an adaptation of the Cheng–Prusoff equation[55]. […] The corrected Ki was calculated using this formula: Kicorrected=Ki(observed)/1+S/KmNCF

E. coli MC4100 = assay: Bactericidal effect in the uptake assay (CFU counts); assay type: cell-based, Escherichia coli; settings: for bacterial inhibition, less than the control without antibiotic: 4-h time point, MHBCA, inoculum 8.5 log10 CFU/mL; for bacterial inhibition, less than the control without antibiotic / dCFU (Δlog10 CFU/mL, count with drug minus growth control): 200 μM drug; for dCFU (Δlog10 CFU/mL, count with drug minus growth control): time 0 h, single replicates
Description: The bactericidal effect determined at each time point was the difference in the concentration of bacteria in the assay tube with antibiotic and that measured in the growth control tube without drug (ΔLog10 CFU/mL). The normal distribution of the data was verified with the Shapiro–Wilk test and the statistical analysis was a comparison of repeated measures ANOVA (*p ≤ 0.05, **p ≤ 0.01, ***p ≤ 0.001) between each time point relatively to the 0-h time point.

[2] = Antibiotic stability in 4-h bacterial culture supernatant; assay type: physicochemical; settings: for additional decrease of residual concentration in used supernatants versus medium: 4-h supernatants with and without iron, after 3 h; for percentage of antibiotic degradation in [bacterial supernatant]: 3 h
Description: For analysis, the determined concentration in the supernatant was adjusted for the degradation of the molecules measured in the stability control tests for each time point. The final net antibiotic concentration in the medium was calculated at each time point by adding the concentration caused by degradation to the concentration of the test antibiotic measured in the assay tubes containing bacteria. […] A second control was added for the β-lactam LOR and CEF to verify the impact of metabolic waste on the stability of the molecules. The supernatant from the 4-h growth control without antibiotic was collected by filtration 0.2 µm. LOR and CEF were then added to the filtrated supernatant at 200 µM, and degradation was measured after 3 h.

PBP5 [3] = biological target: PBP5 (Klebsiella pneumoniae, UniProt A6T693); assay: Membrane PBP binding assay, competition with Bocillin FL; settings: K. pneumoniae ATCC 13883 membranes
Description: (§1) Membrane extracts containing PBPs were obtained as described above. Briefly, all species were grown in 1 L of TSB until the OD600 reached 0.9. The washed pellet was incubated with lysozyme (400 μg/mL), DNase (10 μg/mL) RNase(10 μg/mL) and anti-protease cocktail (200 mg/20 mL). Lysis was done with a French press (20,000 psi) and membrane protein were pelleted by ultracentrifugation steps (100,000 × g). The pellet was suspended in a minimal volume (300–500 μL) of KP 0.05 M buffer at pH 7. The protein concentration in the membrane preparations was determined with the Micro BCA TM Protein Assay Kit (Thermo Fisher Scientific, Rockford, IL) using bovine serum albumin as a standard.
(§2) The PBP binding assay was done as described previously[36],[56],[57]. For each antibiotic concentration tested, a quantity of 25 to 40 μg of membrane preparation was used as the source of PBPs, depending on the species. […]
(§3) To be able to visualize labeled PBPs after electrophoresis, gels were rinsed in water and fixed in a solution of 50% methanol and 7% acetic acid for 30 min. […] To obtain quantifiable data, the software Quantity One 1D analysis was used (version 4.6.6; Bio-Rad Laboratories, Richmond, CA). The volume (intensity × constant area) of each PBP was measured. […] The PBP profiles were confirmed, and the PBP numbering were determined using published data and individual molecular weights. […]

PBP5 [4] = biological target: PBP5 (Escherichia coli, UniProt P0AEB2); assay: as above; settings: E. coli MC4100 membranes
Description: as §1, §2, §3

[5] = 150 ng PaPBP3, 500 nM Bocillin FL, n = 3, read-out: IC50 PaPBP3 purified
[6] = supernatant of 4-hour culture in ID-MHBCA

Chain of SHV-1 (P0AD64 23-286): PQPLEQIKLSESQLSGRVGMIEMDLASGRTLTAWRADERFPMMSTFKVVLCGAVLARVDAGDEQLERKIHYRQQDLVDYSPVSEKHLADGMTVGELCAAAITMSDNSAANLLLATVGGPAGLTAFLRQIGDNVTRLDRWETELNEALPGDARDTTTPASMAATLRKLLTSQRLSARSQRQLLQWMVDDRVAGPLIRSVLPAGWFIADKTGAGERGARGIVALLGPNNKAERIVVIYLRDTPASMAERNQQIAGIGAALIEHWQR
T1 sequence (G3XD46 53-579): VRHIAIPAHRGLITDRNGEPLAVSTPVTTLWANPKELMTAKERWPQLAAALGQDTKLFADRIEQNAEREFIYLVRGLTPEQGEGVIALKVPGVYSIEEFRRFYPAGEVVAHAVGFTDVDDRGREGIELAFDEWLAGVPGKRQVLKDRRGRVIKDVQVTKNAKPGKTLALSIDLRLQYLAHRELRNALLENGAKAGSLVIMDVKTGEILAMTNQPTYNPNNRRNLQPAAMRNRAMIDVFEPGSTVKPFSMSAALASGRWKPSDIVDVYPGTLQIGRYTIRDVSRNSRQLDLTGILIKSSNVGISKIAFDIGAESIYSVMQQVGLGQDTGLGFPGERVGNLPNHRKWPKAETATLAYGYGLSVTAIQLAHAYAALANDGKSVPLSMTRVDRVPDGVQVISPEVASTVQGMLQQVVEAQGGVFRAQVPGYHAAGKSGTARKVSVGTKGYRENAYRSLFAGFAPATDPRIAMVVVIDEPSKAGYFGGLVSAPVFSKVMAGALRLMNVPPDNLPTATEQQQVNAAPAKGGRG
Chain of PBP5 (Escherichia coli, UniProt P0AEB2) (P0AEB2 30-403): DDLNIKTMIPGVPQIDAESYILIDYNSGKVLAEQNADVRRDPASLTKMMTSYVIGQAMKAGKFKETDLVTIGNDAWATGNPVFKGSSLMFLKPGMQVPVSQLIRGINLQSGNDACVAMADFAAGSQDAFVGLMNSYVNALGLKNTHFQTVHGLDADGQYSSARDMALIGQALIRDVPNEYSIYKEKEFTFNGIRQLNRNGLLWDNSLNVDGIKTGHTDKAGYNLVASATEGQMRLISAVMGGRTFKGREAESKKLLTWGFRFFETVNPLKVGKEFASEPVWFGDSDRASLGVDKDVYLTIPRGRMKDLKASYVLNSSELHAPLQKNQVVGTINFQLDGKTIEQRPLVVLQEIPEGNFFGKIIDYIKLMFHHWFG
Chain of PBP5 (Klebsiella pneumoniae, UniProt A6T693) (A6T693 entry or part of it): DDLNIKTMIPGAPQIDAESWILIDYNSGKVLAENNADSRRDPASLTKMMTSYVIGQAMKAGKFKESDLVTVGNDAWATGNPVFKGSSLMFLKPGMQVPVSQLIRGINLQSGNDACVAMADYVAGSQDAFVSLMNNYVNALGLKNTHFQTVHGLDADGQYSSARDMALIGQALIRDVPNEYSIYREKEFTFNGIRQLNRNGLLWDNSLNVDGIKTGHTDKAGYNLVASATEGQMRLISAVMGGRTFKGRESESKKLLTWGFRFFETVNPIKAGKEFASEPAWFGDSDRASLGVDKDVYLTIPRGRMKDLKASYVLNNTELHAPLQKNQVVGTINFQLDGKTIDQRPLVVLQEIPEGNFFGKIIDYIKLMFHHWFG

| SMILES | IC50 [1, 5] [µM] | IC50 ratio βL/SID-βL, PaPBP3 purified [1] | bacterial inhibition, less than the control without antibiotic (E. coli MC4100) | dCFU (Δlog10 CFU/mL, count with drug minus growth control) (E. coli MC4100; ID FALSE (MHBCA)) | dCFU (Δlog10 CFU/mL, count with drug minus growth control) (E. coli MC4100; ID TRUE (ID-MHBCA)) | additional decrease of residual concentration in used supernatants versus medium [2] [%] | percentage of antibiotic degradation in [bacterial supernatant] [2, 6] [%] | other results |
| --- | --- | --- | --- | --- | --- | --- | --- | --- |
| CC1(C)SC2C(NC(=O)C(NC(=O)CN(CCCCNC(=O)c3cccc(O)c3O)C(=O)c3cccc(O)c3O)c3ccccc3)C(=O)N2C1C(=O)O (centres unmarked) [BAMP, bis-catechol (azotochelin)-ampicillin] | 0.076 ± 0.031 | 0.97 |  |  |  |  |  | Ki (SHV-1): 184 ± 14 µM |
| CC1(C)S[C@@H]2[C@H](NC(=O)[C@H](N)c3ccccc3)C(=O)N2[C@H]1C(=O)O [AMP, ampicillin, reference compound] |  |  |  |  |  |  |  | IC50 [1]: 0.074 ± 0.029 µM |
| O=C(CN(CCCCNC(=O)c1cccc(O)c1O)C(=O)c1cccc(O)c1O)NC(C(=O)NC1C(=O)N2C(C(=O)O)=C(Cl)CCC12)c1ccccc1 (centres unmarked) [BLOR, bis-catechol (azotochelin)-loracarbef] | 0.38 ± 0.07 | 23 | ~ 1.2 log10 CFU/mL | 0.04788 and 0.3837 and 0.3931 | -0.2509 and -0.1259 and 0.08749 and -0.2979 and -0.04259 |  |  | dCFU (E. coli MC4100; ID FALSE (MHBCA), time 8 h): -3.459; dCFU (E. coli MC4100; ID FALSE (MHBCA), time 10 h): -3.652; dCFU (E. coli MC4100; ID FALSE (MHBCA), time 24 h): -3.754 |
| O=C(CCC(=O)N(CCCCNC(=O)c1cccc(O)c1O)CCCNC(=O)c1cccc(O)c1O)NCCCCCN(O)C(=O)CCCC(=O)NC(C(=O)NC1C(=O)N2C(C(=O)O)=C(Cl)CSC12)c1ccccc1 (centres unmarked) [MCEF, mixed ligand bis-catechol-mono-hydroxamate-cefaclor] |  |  |  | 0.157 and -0.07022 and 0.01569 and -0.00717 | 0.0557 and -0.2291 and -0.2621 |  |  |  |
| N[C@@H](C(=O)N[C@@H]1C(=O)N2C(C(=O)O)=C(Cl)CC[C@H]12)c1ccccc1 [LOR, loracarbef, reference compound] | 8.6 ± 3.6 |  | ~ 1.2 log10 CFU/mL | 0.02669 and 0.4114 and -0.0313 | -0.2509 and -0.1259 and -0.06378 | ≤ 12 | 11 | SHV-1 Kcat (SHV-1; n = 3): 7.4 ± 0.5 s⁻¹; Km (SHV-1; read-out: SHV-1 Km, Michaelis–Menten curves, n = 3, 25 °C): 29 ± 9 µM; IC50 (PBP5 [3]): > 50 µM; IC50 (PBP5 [4]): > 50 µM |
| N[C@@H](C(=O)N[C@@H]1C(=O)N2C(C(=O)O)=C(Cl)CS[C@H]12)c1ccccc1 [CEF, cefaclor, reference compound] |  |  |  | 0.07784 and -0.144 and -0.0313 | -0.00308 and -0.2509 and -0.2737 | ≤ 12 | 32 | percentage of antibiotic degradation in [bacterial supernatant] ([2]; supernatant of 4-hour culture in MHBCA): 36% |
